Laboratory results reported in ChEMBL document CHEMBL5724696, “Autophagy assay results for EUbOPEN Chemogenomics Library” (2024).
Values joined by “and” are separate entries in the source; they are usually repeats but may differ in a detail not shown here. Equal values may be shown once.

Experiments:
Assay type in all cases: functional, Homo sapiens
U2OS [1] = experiment: (§1) Here: values are normalized to the negative (DMSO; defined as 0% autophagy induction) and positive (250nM Torin1; mTOR inhibitor; defined as maximal inducer of autophagy = 100%) control compounds and represented as % of autophagy induction. […] The impact of autophagy induction on cells is complex and depends on the affected target. As such, the magnitude of a phenotype may not be equally mirrored in the %-value of autophagy induction and vice versa. The dynamics of the induction may indicate the mode of activation: e.g. activation via phosphorylation or a signaling cascade may occur fast, while activation via transcription factors may take considerably longer. […] Of note, treatment concentrations may be sub-optimal for specific compounds, leading to false negative annotations.; conditions: Culturing Media DMEM, 1 % Penicillin/Streptomycin, 10% Fetal bovin serum Add-On: No, Screening Media Control DMEM, Screening Media Samples DMEM
TERT-RPE1 = experiment: as §1; conditions: Culturing Media DMEM/F12 (1:1), 1 % Penicillin/Streptomycin, 10% Fetal bovin serum Add-On: No, Screening Media Control DMEM/F12 (1:1), Screening Media Samples DMEM/F12 (1:1)
U2OS [2] = experiment: as §1; conditions: Culturing Media DMEM, 1 % Penicillin/Streptomycin, 10% Fetal bovin serum Add-On: No, Screening Media Control DMEM, Screening Media Samples DMEM; remark: listed apart in the source
[3] = Compound Concentration 0.5 uM, Timepoint 12 hours
[4] = Compound Concentration 0.5 uM, Timepoint 24 hours
[5] = Compound Concentration 0.5 uM, Timepoint 36 hours
[6] = Compound Concentration 0.5 uM, Timepoint 60 hours
[7] = Compound Concentration 2 uM, Timepoint 12 hours
[8] = Compound Concentration 2 uM, Timepoint 24 hours
[9] = Compound Concentration 2 uM, Timepoint 36 hours
[10] = Compound Concentration 2 uM, Timepoint 60 hours
[11] = Compound Concentration 10 uM, Timepoint 12 hours
[12] = Compound Concentration 10 uM, Timepoint 24 hours
[13] = Compound Concentration 10 uM, Timepoint 36 hours
[14] = Compound Concentration 10 uM, Timepoint 60 hours

c1cc(CN2CCCNCCNCCCNCC2)ccc1CN1CCCNCCNCCCNCC1 [PLERIXAFOR]
autophagy induction (U2OS [1]; [3]): 1.944%
autophagy induction (U2OS [1]; [4]): -0.47%
autophagy induction (U2OS [1]; [5]): 1403.21%
autophagy induction (U2OS [1]; [6]): -0.2952%
autophagy induction (U2OS [1]; [7]): -1.895%
autophagy induction (U2OS [1]; [8]): -4.5042%
autophagy induction (U2OS [1]; [9]): -61.4276%
autophagy induction (U2OS [1]; [10]): -2.96%
autophagy induction (U2OS [1]; [11]): -9.041%
autophagy induction (U2OS [1]; [12]): -7.066%
autophagy induction (U2OS [1]; [13]): -62.672%
autophagy induction (U2OS [1]; [14]): -3.919%
autophagy induction (TERT-RPE1; Compound Concentration 0.5 uM, Timepoint 12 hours, 12 h, 0.5 µM): -4.475% and 7.798%
autophagy induction (TERT-RPE1; Compound Concentration 0.5 uM, Timepoint 24 hours, 24 h, 0.5 µM): -3.816% and 9.011%
autophagy induction (TERT-RPE1; Compound Concentration 0.5 uM, Timepoint 36 hours, 36 h, 0.5 µM): -5.185% and 14.9232%
autophagy induction (TERT-RPE1; Compound Concentration 0.5 uM, Timepoint 60 hours, 60 h, 0.5 µM): -8.266% and 14.0932%
autophagy induction (TERT-RPE1; Compound Concentration 2 uM, Timepoint 12 hours, 12 h, 2 µM): -1.002% and 11.2768%
autophagy induction (TERT-RPE1; Compound Concentration 2 uM, Timepoint 24 hours, 24 h, 2 µM): -1.015% and 15.5767%
autophagy induction (TERT-RPE1; Compound Concentration 2 uM, Timepoint 36 hours, 36 h, 2 µM): -0.9806% and 19.0771%
autophagy induction (TERT-RPE1; Compound Concentration 2 uM, Timepoint 60 hours, 60 h, 2 µM): -1.796% and 21.8048%
autophagy induction (TERT-RPE1; Compound Concentration 10 uM, Timepoint 12 hours, 12 h, 10 µM): -0.2124% and 10.1362%
autophagy induction (U2OS [2]; [3]): 9.361%
autophagy induction (U2OS [2]; [4]): 4.086%
autophagy induction (U2OS [2]; [5]): 3.942%
autophagy induction (U2OS [2]; [6]): -10.4654%
autophagy induction (U2OS [2]; [7]): -10.5746%
autophagy induction (U2OS [2]; [8]): -17.2139%
autophagy induction (U2OS [2]; [9]): -19.8311%
autophagy induction (U2OS [2]; [10]): -28.2789%
autophagy induction (U2OS [2]; [11]): -19.8514%
autophagy induction (U2OS [2]; [12]): -21.1534%
autophagy induction (U2OS [2]; [13]): -25.1466%
autophagy induction (U2OS [2]; [14]): -33.2742%

N#Cc1c[nH]c2c(C(=O)N3CCN(CCc4ccc(F)cc4)CC3)cccc12 [PRUVANSERIN]
autophagy induction (U2OS [1]; [3]): -2.928%
autophagy induction (U2OS [1]; [4]): -3.235%
autophagy induction (U2OS [1]; [5]): -1.344%
autophagy induction (U2OS [1]; [6]): -1.7078%
autophagy induction (U2OS [1]; [7]): -0.5957%
autophagy induction (U2OS [1]; [8]): -2.183%
autophagy induction (U2OS [1]; [9]): -3.588%
autophagy induction (U2OS [1]; [10]): -2.524%
autophagy induction (U2OS [1]; [11]): 4.878%
autophagy induction (U2OS [1]; [12]): -0.06233%
autophagy induction (U2OS [1]; [13]): -0.9102%
autophagy induction (U2OS [1]; [14]): -2.945%
autophagy induction (TERT-RPE1; [3]): -0.9197%
autophagy induction (TERT-RPE1; [4]): -7.874%
autophagy induction (TERT-RPE1; [5]): -10.0141%
autophagy induction (TERT-RPE1; [6]): -14.8375%
autophagy induction (TERT-RPE1; [7]): -6.1985%
autophagy induction (TERT-RPE1; [8]): -7.924%
autophagy induction (TERT-RPE1; [9]): -9.7251%
autophagy induction (TERT-RPE1; [10]): -15.807%
autophagy induction (TERT-RPE1; [11]): -0.3174%
autophagy induction (TERT-RPE1; [12]): -4.163%
autophagy induction (TERT-RPE1; [13]): -3.571%
autophagy induction (TERT-RPE1; [14]): -3.5258%
autophagy induction (U2OS [2]; [3]): -6.178%
autophagy induction (U2OS [2]; [4]): -8.725%
autophagy induction (U2OS [2]; [5]): -11.774%
autophagy induction (U2OS [2]; [6]): -11.1897%
autophagy induction (U2OS [2]; [7]): -0.7991%
autophagy induction (U2OS [2]; [8]): -1.585%
autophagy induction (U2OS [2]; [9]): -5.754%
autophagy induction (U2OS [2]; [10]): -9.463%
autophagy induction (U2OS [2]; [11]): -2.951%
autophagy induction (U2OS [2]; [12]): 1.579%
autophagy induction (U2OS [2]; [13]): -6.9473%
autophagy induction (U2OS [2]; [14]): -6.12%
